Test results published in the supplement of paper PMC6045584.
± gives the standard deviation of the averaged measurements.

Key:
[1] = compound: C[C@H](CN(C)C)Oc1nc(Nc2cc3cccc(Cl)c3cn2)cnc1C#N; experiment: surviving fraction relative to DMSO-only wells; higher = less growth inhibition; details: exposure time: 5 days
Method in brief: (§1)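 After seeding at 250–500 cells per well in 384-well plates and a 24-hour wait, log-phase tumour cell lines were exposed without interruption for five days to inhibitors at 0.5, 1, 5, 10, 50, 100, 500 and 1000 nM. CellTiter-Glo luminescence was recorded after 10 minutes at room temperature. Viability is reported as surviving fraction, the luminescence normalised to the median of DMSO-only wells.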

[2] = compound: COc1cc2nccc(Oc3ccc(NC(=O)C4(C(=O)Nc5ccc(F)cc5)CC4)cc3)c2cc1OC [CABOZANTINIB]; experiment: as above; details: exposure time: 5 days
Method in brief: as §1

Row | Test System | surviving fraction ([1]; 0.5 nM) | surviving fraction ([1]; 1 nM) | surviving fraction ([1]; 5 nM) | surviving fraction ([1]; 10 nM) | surviving fraction ([1]; 50 nM) | surviving fraction ([1]; 100 nM) | surviving fraction ([1]; 500 nM) | surviving fraction ([1]; 1000 nM) | surviving fraction ([2]; 0.5 nM) | surviving fraction ([2]; 1 nM) | surviving fraction ([2]; 5 nM) | surviving fraction ([2]; 10 nM) | surviving fraction ([2]; 50 nM) | surviving fraction ([2]; 100 nM) | surviving fraction ([2]; 500 nM) | surviving fraction ([2]; 1000 nM)
1 | HCT15 LARGE INTESTINE | 1.05 ± 0.022 | 1.04 ± 0.05 | 1.04 ± 0.022 | 1.05 ± 0.038 | 1.06 ± 0.051 | 1.06 ± 0.069 | 0.998 ± 0.057 | 0.799 ± 0.11 | 0.952 ± 0.044 | 0.95 ± 0.06 | 0.943 ± 0.044 | 0.951 ± 0.073 | 0.966 ± 0.036 | 1.02 ± 0.037 | 0.994 ± 0.065 | 1.04 ± 0.06
2 | SG27 HEADNECK | 1.14 ± 0.17 | 0.995 ± 0.085 | 1.11 ± 0.12 | 0.997 ± 0.04 | 1.1 ± 0.028 | 1.03 ± 0.065 | 1.16 ± 0.062 | 1.15 ± 0.097 | 1.02 ± 0.036 | 1.06 ± 0.021 | 0.971 ± 0.054 | 0.996 ± 0.1 | 1.14 ± 0.079 | 1.03 ± 0.13 | 0.975 ± 0.14 | 0.9483 ± 0.007
3 | MG63 BONE | 1.03 ± 0.042 | 1.05 ± 0.035 | 1.05 ± 0.037 | 1.06 ± 0.025 | 1.11 ± 0.031 | 1.12 ± 0.047 | 1.05 ± 0.051 | 0.889 ± 0.045 | 0.966 ± 0.019 | 1.02 ± 0.042 | 1.05 ± 0.021 | 1.03 ± 0.032 | 1.03 ± 0.019 | 0.946 ± 0.037 | 0.724 ± 0.011 | 0.696 ± 0.031
4 | SCC36 HEADNECK | 1.05 ± 0.03 | 1.07 ± 0.038 | 0.991 ± 0.065 | 1.15 ± 0.055 | 1.07 ± 0.041 | 1.13 ± 0.042 | 0.427 ± 0.053 | 0.313 ± 0.017 | 1.03 ± 0.092 | 0.961 ± 0.074 | 1.09 ± 0.066 | 1.02 ± 0.032 | 1.1 ± 0.09 | 1.07 ± 0.073 | 1.07 ± 0.11 | 0.88 ± 0.081
5 | MDAMB453 BREAST | 1.04 ± 0.025 | 1.09 ± 0.063 | 1.11 ± 0.058 | 1.06 ± 0.025 | 1.1 ± 0.051 | 1.1 ± 0.056 | 0.596 ± 0.074 | 0.273 ± 0.012 | 1.04 ± 0.049 | 1.01 ± 0.034 | 1.09 ± 0.051 | 1.03 ± 0.052 | 1.01 ± 0.092 | 1.06 ± 0.014 | 1.06 ± 0.062 | 1.02 ± 0.041
6 | HCC1395 BREAST | 0.957 ± 0.076 | 1.14 ± 0.13 | 1.161 ± 0.011 | 1.15 ± 0.14 | 1.27 ± 0.16 | 1.22 ± 0.029 | 0.729 ± 0.1 | 0.671 ± 0.15 | 1.12 ± 0.073 | 1.02 ± 0.06 | 1.14 ± 0.045 | 1.23 ± 0.034 | 1.38 ± 0.14 | 1.33 ± 0.053 | 1.13 ± 0.085 | 1.2 ± 0.086
7 | HOSMNG BONE | 0.943 ± 0.14 | 0.937 ± 0.064 | 0.984 ± 0.072 | 0.964 ± 0.047 | 1.02 ± 0.072 | 1.05 ± 0.079 | 0.983 ± 0.096 | 0.0657 ± 0.0067 | 0.961 ± 0.061 | 0.984 ± 0.053 | 0.885 ± 0.036 | 0.913 ± 0.1 | 0.833 ± 0.038 | 0.839 ± 0.018 | 0.314 ± 0.0085 | 0.274 ± 0.011
8 | SG32 HEADNECK | 1.17 ± 0.16 | 1.16 ± 0.24 | 1.06 ± 0.078 | 1.03 ± 0.1 | 1.05 ± 0.081 | 1.16 ± 0.23 | 0.748 ± 0.066 | 0.653 ± 0.11 | 1.06 ± 0.18 | 1 ± 0.17 | 0.922 ± 0.1 | 1.04 ± 0.29 | 0.901 ± 0.1 | 0.961 ± 0.13 | 0.968 ± 0.1 | 0.711 ± 0.05
9 | MFM223 BREAST | 1.27 ± 0.17 | 1.09 ± 0.057 | 1.15 ± 0.14 | 1.09 ± 0.094 | 1.08 ± 0.093 | 1.14 ± 0.18 | 0.8 ± 0.048 | 0.526 ± 0.17 | 1.12 ± 0.16 | 1.04 ± 0.048 | 1.12 ± 0.094 | 1.06 ± 0.086 | 1.16 ± 0.17 | 1.22 ± 0.073 | 1.05 ± 0.029 | 0.824 ± 0.098
10 | MDAMB134 BREAST | 0.726 ± 0.035 | 0.791 ± 0.072 | 0.766 ± 0.071 | 0.663 ± 0.12 | 0.66 ± 0.073 | 0.6525 ± 0.005 | 0.497 ± 0.054 | 0.488 ± 0.02 | 0.902 ± 0.12 | 0.888 ± 0.047 | 0.896 ± 0.13 | 1.04 ± 0.14 | 0.907 ± 0.23 | 0.943 ± 0.0042 | 0.955 ± 0.086 | 0.873 ± 0.086
11 | H23 LUNG | 1 ± 0.058 | 0.99 ± 0.033 | 1 ± 0.064 | 0.989 ± 0.024 | 1.06 ± 0.082 | 1.02 ± 0.038 | 1 ± 0.092 | 0.919 ± 0.079 | 0.962 ± 0.052 | 0.931 ± 0.021 | 0.974 ± 0.022 | 0.924 ± 0.032 | 0.945 ± 0.043 | 0.936 ± 0.053 | 0.937 ± 0.066 | 0.925 ± 0.028
